Earlier results, collected in US20060229344A1, “Method of treating amyotrophic lateral sclerosis” (priority 2005, published 2006).

What was measured:
[1] = in vivo
[2] = in vivo; remark: listed apart in the source

In the case of `Cc1cc(CCCOc2c(C)cc(-c3noc(C(F)(F)F)n3)cc2C)on1` [VP 63843, 3-[3,5-dimethyl-4-[[3-(3-methyl-5-isoxazolyl)propyl]oxy]phenyl]-5-(trifluoromethyl)-1,2,4-oxadiazole], the “absorption after oral administration” value is given as “well absorbed”, the “crossing into the central nervous system and gray matter” value [1] is given as “crosses readily into the central nervous system and into gray matter” and the side-effects [2] is given as “few side-effects”. The tolerability [2] was “well tolerated” and the toxicity [2] was “little toxicity”.
